Results as given in US12649750B2, “Macrocyclic compounds, compositions, and methods of using thereof” (Sionna Therapeutics Inc., priority 2022, dated 2026).

Assays:
NBD1 = molecular target: T1, NBD1 (Homo sapiens, UniProt P13569); assay: Aggregation analysis using differential static light scattering (DSLS), thermal stability of NBD1 (ΔTagg); type: binding; conditions: ΔTagg versus DMSO control, NBD1 0.2 mg/ml
T1 construct: Purified recombinant NBD1 was produced using previously described methods; made in house
T1 sequence (P13569 423-646 limits assumed): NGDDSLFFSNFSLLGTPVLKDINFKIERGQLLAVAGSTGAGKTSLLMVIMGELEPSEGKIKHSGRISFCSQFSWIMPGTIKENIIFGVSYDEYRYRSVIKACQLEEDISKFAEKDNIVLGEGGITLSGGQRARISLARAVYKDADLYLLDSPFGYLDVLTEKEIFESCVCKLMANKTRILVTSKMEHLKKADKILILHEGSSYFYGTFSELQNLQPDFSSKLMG
Outline: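 NBD1 0.2 mg/ml, S200 buffer (50 mM Tris-HCl, 150 mM NaCl, 5 mM MgCl2, 2 mM ATP, 2 mM DTT, pH7.6) + 1% glycerol; cpd in DMSO; oil overlay. Ramp 25→70° C. at 1° C./min, DSLS images every 0.5° C. ΔTagg = Tagg (inflection) − mean DMSO Tagg.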

CFTR = molecular target: T2, CFTR (Homo sapiens, UniProt P13569, DEL508-508); assay: TECC24 AUC fold over DMSO @10 μM, CFTR-mediated transepithelial chloride transport in CF-HBE cells; type: cell-based; conditions: test agent AUC divided by DMSO vehicle AUC, primary CF-HBE cells, ΔF508 homozygous donor, 48 hours incubation
T2 construct: Primary human bronchial epithelial cells from a ΔF508 homozygous CF donor; host or cells: primary human bronchial epithelial cells (CF-HBE), ΔF508 homozygous donor
T2 sequence (P13569 with tags, fused parts or gaps DEL508-508): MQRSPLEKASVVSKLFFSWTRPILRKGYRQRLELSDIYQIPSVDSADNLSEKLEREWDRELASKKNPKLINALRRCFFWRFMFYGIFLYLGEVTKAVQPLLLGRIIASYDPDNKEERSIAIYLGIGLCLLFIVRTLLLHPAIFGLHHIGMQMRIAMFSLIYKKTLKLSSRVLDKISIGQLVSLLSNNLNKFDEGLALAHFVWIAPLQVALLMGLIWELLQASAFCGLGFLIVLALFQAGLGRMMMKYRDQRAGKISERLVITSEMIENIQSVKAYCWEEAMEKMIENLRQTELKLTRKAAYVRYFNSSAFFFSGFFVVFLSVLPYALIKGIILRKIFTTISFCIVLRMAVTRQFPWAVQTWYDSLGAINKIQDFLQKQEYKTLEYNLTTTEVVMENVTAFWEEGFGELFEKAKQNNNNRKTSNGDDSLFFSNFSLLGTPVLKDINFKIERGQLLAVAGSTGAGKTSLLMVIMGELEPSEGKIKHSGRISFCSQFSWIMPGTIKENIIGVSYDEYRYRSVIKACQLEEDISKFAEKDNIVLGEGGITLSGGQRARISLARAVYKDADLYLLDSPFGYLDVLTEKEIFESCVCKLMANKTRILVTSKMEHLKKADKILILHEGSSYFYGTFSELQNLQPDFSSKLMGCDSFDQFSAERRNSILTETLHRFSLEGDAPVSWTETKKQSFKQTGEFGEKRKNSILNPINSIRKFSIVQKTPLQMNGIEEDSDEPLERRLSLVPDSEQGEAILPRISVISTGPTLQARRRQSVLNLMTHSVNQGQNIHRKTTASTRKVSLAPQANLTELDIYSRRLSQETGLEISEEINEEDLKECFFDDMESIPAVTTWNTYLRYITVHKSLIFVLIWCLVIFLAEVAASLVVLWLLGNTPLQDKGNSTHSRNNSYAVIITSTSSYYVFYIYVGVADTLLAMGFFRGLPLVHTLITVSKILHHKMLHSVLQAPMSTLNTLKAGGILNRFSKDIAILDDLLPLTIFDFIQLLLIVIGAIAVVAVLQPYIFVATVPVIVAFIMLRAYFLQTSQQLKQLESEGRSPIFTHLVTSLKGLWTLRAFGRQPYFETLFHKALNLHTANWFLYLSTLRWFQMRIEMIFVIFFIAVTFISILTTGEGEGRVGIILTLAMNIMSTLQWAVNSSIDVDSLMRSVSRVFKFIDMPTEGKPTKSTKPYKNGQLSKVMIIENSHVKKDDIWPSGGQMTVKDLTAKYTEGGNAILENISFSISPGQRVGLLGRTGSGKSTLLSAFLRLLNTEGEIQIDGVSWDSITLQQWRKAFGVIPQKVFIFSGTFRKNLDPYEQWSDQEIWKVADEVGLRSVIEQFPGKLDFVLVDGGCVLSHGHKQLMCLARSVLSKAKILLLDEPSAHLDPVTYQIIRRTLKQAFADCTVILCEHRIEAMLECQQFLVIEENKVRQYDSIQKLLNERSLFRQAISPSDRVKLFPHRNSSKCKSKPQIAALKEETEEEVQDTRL
Outline: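 ΔF508-homozygous primary bronchial epithelial cells incubated 48 h at 36.5° C with compound (10 μM) in IL-13-containing medium, then TECC24 current-clamp recording in pH 7.4 Hepes saline with benzamil 10 μM, forskolin 10 μM, then CFTR inhibitor-172 20 μM. Equivalent Cl− current AUC between forskolin and inhibitor, expressed as fold over DMSO.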

Structure (SMILES) | DSLS 3D (100 μM ΔT) (NBD1) | TECC (AUC, 10 μM) (CFTR)
[2H]C([2H])([2H])C1(c2cccc(CC(C)C(=O)O)c2F)CCCC(C)(C)CS(=O)(=O)CCc2c(c(F)cc3[nH]ccc23)Oc2ccc(F)c(c2)-c2nc1nn2C (single isomer, unassigned) [Compound 18A, 3-[3-[22,28-difluoro-3,10,10-trimethyl-12,12-dioxo-6-(trideuteriomethyl)-24-oxa-12lambda6-thia-3,4,19,30-tetrazapentacyclo[23.3.1.12,5.015,23.016,20]triaconta-1(29),2(30),4,15,17,20,22,25,27-nonaen-6-yl]-2-fluoro-phenyl]-2-methyl-propanoic acid] | B (a value above 5 °C and less than or equal to 10 °C is marked “B”) | A (a TECC value less than 12 is marked “A”)
[2H]C([2H])([2H])C1(c2cccc(CC(C)C(=O)O)c2F)CCCC(C)(C)CS(=O)(=O)CCc2c(c(F)cc3[nH]ccc23)Oc2ccc(F)c(c2)-c2nc1nn2C (single isomer, unassigned) [Compound 18B, 3-[3-[22,28-difluoro-3,10,10-trimethyl-12,12-dioxo-6-(trideuteriomethyl)-24-oxa-12lambda6-thia-3,4,19,30-tetrazapentacyclo[23.3.1.12,5.015,23.016,20]triaconta-1(29),2(30),4,15,17,20,22,25,27-nonaen-6-yl]-2-fluoro-phenyl]-2-methyl-propanoic acid] | C (a value greater than 10 °C and less than or equal to 25 °C is marked “C”) | B (a value between 12-20 is marked “B”)
CC(Oc1cccc(C2(C)CCCC(C)(C)CS(=O)(=O)CCc3c(c(F)cc4[nH]ccc34)Oc3ccc(F)c(c3)-c3nc2nn3C)c1)C(=O)O (single isomer, unassigned) [Compound 19A, 2-[3-[22,28-difluoro-3,6,10,10-tetramethyl-12,12-dioxo-24-oxa-12 6-thia-3,4,19,30-tetrazapentacyclo[23.3.1.12,5.015,23.016,20]triaconta-1(29),2(30),4,15,17,20,22,25,27-nonaen-6-yl]phenoxy]propanoic Acid] | C (a value greater than 10 °C and less than or equal to 25 °C is marked “C”) | C (a value between 20 and 80 is marked “C”)
CC(Cc1cccc(C2(C#N)CCCC(C)(C)CS(=O)(=O)CCc3c(c(F)cc4[nH]ccc34)Oc3ccc(F)c(c3)-c3nc2nn3C)c1)C(=O)O (single isomer, unassigned) [Compound 20A, 3-[3-[6-cyano-22,28-difluoro-3,10,10-trimethyl-12,12-dioxo-24-oxa-12lambda6-thia-3,4,19,30-tetrazapentacyclo[23.3.1.12,5.015,23.016,20]triaconta-1(29),2(30),4,15,17,20,22,25,27-nonaen-6-yl]phenyl]-2-methyl-propanoic Acid] | C (a value greater than 10 °C and less than or equal to 25 °C is marked “C”) | C (a value between 20 and 80 is marked “C”)
CC(Cc1cccc(C2(C#N)CCCC(C)(C)CS(=O)(=O)CCc3c(c(F)cc4[nH]ccc34)Oc3ccc(F)c(c3)-c3nc2nn3C)c1)C(=O)O (single isomer, unassigned) [Compound 20B, 3-[3-[6-cyano-22,28-difluoro-3,10,10-trimethyl-12,12-dioxo-24-oxa-12lambda6-thia-3,4,19,30-tetrazapentacyclo[23.3.1.12,5.015,23.016,20]triaconta-1(29),2(30),4,15,17,20,22,25,27-nonaen-6-yl]phenyl]-2-methyl-propanoic acid] | A (an ΔTagg value less than or equal to 5 °C is marked “A”) | A (a TECC value less than 12 is marked “A”)
CC1(C)CCCC(c2cccc(CCC(=O)O)c2)n2cc(C#N)c(n2)-c2cc(ccc2F)Oc2c(F)cc3[nH]ccc3c2CCS(=O)(=O)C1 (single isomer, unassigned) [Compound 22B, 3-[3-[3-cyano-22,28-difluoro-10,10-dimethyl-12,12-dioxo-24-oxa-12lambda6-thia-5,19,30-triazapentacyclo[23.3.1.12,5.015,23.016,20]triaconta-1(29),2(30),3,15,17,20,22,25,27-nonaen-6-yl]phenyl]propanoic acid] | A (an ΔTagg value less than or equal to 5 °C is marked “A”) | B (a value between 12-20 is marked “B”)
CC1(C)CCCC(c2cccc(CCC(=O)O)c2)n2cc(C#N)c(n2)-c2cc(ccc2F)Oc2c(F)cc3[nH]ccc3c2CCS(=O)(=O)C1 (single isomer, unassigned) [Compound 22C, 3-[3-[3-cyano-22,28-difluoro-10,10-dimethyl-12,12-dioxo-24-oxa-12lambda6-thia-5,19,30-triazapentacyclo[23.3.1.12,5.015,23.016,20]triaconta-1(29),2(30),3,15,17,20,22,25,27-nonaen-6-yl]phenyl]propanoic acid] | C (a value greater than 10 °C and less than or equal to 25 °C is marked “C”) | C (a value between 20 and 80 is marked “C”)
CC1(C)CCCC(c2cccc(CCC(=O)O)c2)n2ccc(n2)-c2cc(ccc2F)Oc2c(F)cc3[nH]ccc3c2CCS(=O)(=O)C1 (single isomer, unassigned) [Compound 24A, 3-[3-[22,28-difluoro-10,10-dimethyl-12,12-dioxo-24-oxa-12lambda6-thia-5,19,30-triazapentacyclo[23.3.1.12,5.015,23.016,20]triaconta-1(29),2(30),3,15,17,20,22,25,27-nonaen-6-yl]phenyl]propanoic Acid] | B (a value above 5 °C and less than or equal to 10 °C is marked “B”) | A (a TECC value less than 12 is marked “A”)
CC1(C)CCCC(c2cccc(CCC(=O)O)c2)n2ccc(n2)-c2cc(ccc2F)Oc2c(F)cc3[nH]ccc3c2CCS(=O)(=O)C1 (single isomer, unassigned) [Compound 24B, 3-[3-[22,28-difluoro-10,10-dimethyl-12,12-dioxo-24-oxa-12lambda6-thia-5,19,30-triazapentacyclo[23.3.1.12,5.015,23.016,20]triaconta-1(29),2(30),3,15,17,20,22,25,27-nonaen-6-yl]phenyl]propanoic Acid] | C (a value greater than 10 °C and less than or equal to 25 °C is marked “C”) | A (a TECC value less than 12 is marked “A”)
CC1(C)CCCC(C)(c2cccc(CCC(=O)O)c2)c2c[nH]c(n2)-c2cc(ccc2F)Oc2c(F)cc3[nH]ccc3c2CCS(=O)(=O)C1 (single isomer, unassigned) [Compound 27A, 3-[3-(22,28-difluoro-6,10,10-trimethyl-12,12-dioxo-24-oxa-12lambda6-thia-3,19,30-triazapentacyclo[23.3.1.12,5.015,23.016,20]triaconta-1(29),2,4,15,17,20,22,25,27-nonaen-6-yl)phenyl]propanoic acid] | B (a value above 5 °C and less than or equal to 10 °C is marked “B”) | A (a TECC value less than 12 is marked “A”)
CC1(C)CCCC(C)(c2cccc(CCC(=O)O)c2)c2c[nH]c(n2)-c2cc(ccc2F)Oc2c(F)cc3[nH]ccc3c2CCS(=O)(=O)C1 (single isomer, unassigned) [Compound 27B, 3-[3-(22,28-difluoro-6,10,10-trimethyl-12,12-dioxo-24-oxa-12lambda6-thia-3,19,30-triazapentacyclo[23.3.1.12,5.015,23.016,20]triaconta-1(29),2,4,15,17,20,22,25,27-nonaen-6-yl)phenyl]propanoic acid] | C (a value greater than 10 °C and less than or equal to 25 °C is marked “C”) | C (a value between 20 and 80 is marked “C”)
CC(Cc1cccc(C2(C)CCOC(C)(C)CS(=O)(=O)CCc3c(c(F)cc4[nH]ccc34)Oc3ccc(F)c(c3)-c3nc2nn3C)c1)C(=O)O (single isomer, unassigned) [Compound 28A, 3-[3-(22,28-difluoro-3,6,10,10-tetramethyl-12,12-dioxo-9,24-dioxa-12lambda6-thia-3,4,19,30-tetrazapentacyclo[23.3.1.12,5.015,23.016,20]triaconta-1(29),2(30),4,15,17,20,22,25,27-nonaen-6-yl)phenyl]-2-methyl-propanoic Acid] | C (a value greater than 10 °C and less than or equal to 25 °C is marked “C”) | C (a value between 20 and 80 is marked “C”)
CC(Cc1cccc(C2(C)CCOC(C)(C)CS(=O)(=O)CCc3c(c(F)cc4[nH]ccc34)Oc3ccc(F)c(c3)-c3nc2nn3C)c1)C(=O)O (single isomer, unassigned) [Compound 28B, 3-[3-(22,28-difluoro-3,6,10,10-tetramethyl-12,12-dioxo-9,24-dioxa-12lambda6-thia-3,4,19,30-tetrazapentacyclo[23.3.1.12,5.015,23.016,20]triaconta-1(29),2(30),4,15,17,20,22,25,27-nonaen-6-yl)phenyl]-2-methyl-propanoic Acid] | A (an ΔTagg value less than or equal to 5 °C is marked “A”) | B (a value between 12-20 is marked “B”)
